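Protocol summary: plate cells (96-well), add compound at 5 concentrations, incubate 48 h, interpolate endpoints linearly. Abbreviation: GI50, concentration required for 50% inhibition of growth.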 Active and inactive are the calls of the source. Rule as the data show it: active = GI50 up to about 1.1 µM and inactive = higher.
Experiments:
Assay in all cases: DTP human tumour cell line panel, 48 h
786-0 = test system: 786-0
BT-549 = test system: BT-549
CAKI-1 = test system: CAKI-1
DU-145 = test system: DU-145
HL-60 = test system: HL-60
HT-29 = test system: HT-29
KM12 = test system: KM12
MCF7 = test system: MCF7
MDA-MB-435 = test system: MDA-MB-435
NCI/ADR-RES = test system: NCI/ADR-RES
OVCAR-4 = test system: OVCAR-4
RPMI-8226 = test system: RPMI-8226
RXF 393 = test system: RXF 393
SF-268 = test system: SF-268
SK-OV-3 = test system: SK-OV-3
SN12C = test system: SN12C
SW-620 = test system: SW-620
T47D = test system: T47D
U-251 = test system: U-251
UO-31 = test system: UO-31

Measured: GI50

Cc1ccc2c(c1)C(=O)C(C1OC(=O)c3ccccc31)C2 (stereo not given)
inactive: 786-0 > 100 µM | BT-549 > 100 µM | CAKI-1 > 100 µM | DU-145 > 100 µM | HL-60 64.7 µM | HT-29 29.2 µM | KM12 > 100 µM | MCF7 36.1 µM | MDA-MB-435 > 100 µM | NCI/ADR-RES 33.7 µM | OVCAR-4 > 100 µM | RPMI-8226 45.8 µM | RXF 393 43.8 µM | SF-268 > 100 µM | SK-OV-3 > 100 µM | SN12C 92.7 µM | SW-620 > 100 µM | T47D 76.9 µM | U-251 61 µM | UO-31 > 100 µM

Cc1ccc(O)c(-c2cc(-c3cccc(Cl)c3)c(C#N)c(N)n2)c1
inactive: 786-0 20.4 µM | BT-549 36.3 µM | CAKI-1 29.4 µM | DU-145 44.5 µM | HL-60 36.1 µM | HT-29 25.8 µM | KM12 19.6 µM | MCF7 13.5 µM | MDA-MB-435 13.9 µM | NCI/ADR-RES 24.7 µM | OVCAR-4 15.9 µM | RPMI-8226 19.6 µM | RXF 393 19.3 µM | SF-268 18.6 µM | SK-OV-3 21.4 µM | SN12C 20.9 µM | SW-620 17.2 µM | T47D 29.9 µM | U-251 15.6 µM | UO-31 18 µM

COc1cc(/C=C2\CC3C4CC=C5C[C@@H](O)CC[C@]5(C)C4CC[C@]3(C)\C2=N\O)cc(OC)c1OC (stereo not given in full)
inactive: 786-0 4.66 µM | BT-549 7 µM | CAKI-1 3.94 µM | DU-145 12.9 µM | HL-60 4.61 µM | HT-29 5.51 µM | KM12 2.54 µM | MCF7 3.21 µM | MDA-MB-435 5.12 µM | NCI/ADR-RES 7.6 µM | OVCAR-4 3.94 µM | RPMI-8226 10.4 µM | RXF 393 3.61 µM | SF-268 8.02 µM | SK-OV-3 23.7 µM | SN12C 7.13 µM | SW-620 16.7 µM | T47D 2.72 µM | U-251 6.28 µM | UO-31 2.28 µM

O=C(O)C1=CN(c2ccncc2)C(c2ccco2)=CC1c1ccccc1[N+](=O)[O-] (stereo not given)
inactive: 786-0 2.16 µM | BT-549 12.1 µM | CAKI-1 16.5 µM | DU-145 13.5 µM | HL-60 3.19 µM | HT-29 2.13 µM | KM12 1.75 µM | MCF7 2.99 µM | MDA-MB-435 15.1 µM | NCI/ADR-RES 22.9 µM | OVCAR-4 13.9 µM | RPMI-8226 2.67 µM | RXF 393 6.31 µM | SF-268 5.71 µM | SK-OV-3 16.3 µM | SN12C 13.6 µM | SW-620 10.2 µM | T47D 10.6 µM | U-251 6.31 µM | UO-31 10.4 µM

COc1ccc(C2=Nn3c(nnc(Cc4ccc(Cl)cc4)c3=O)SC2)cc1
inactive: 786-0 45 µM | BT-549 41.8 µM | CAKI-1 38.7 µM | DU-145 59.3 µM | HL-60 32.8 µM | HT-29 30.4 µM | KM12 35.8 µM | MCF7 27.9 µM | MDA-MB-435 10.4 µM | NCI/ADR-RES 19.8 µM | OVCAR-4 42.9 µM | RPMI-8226 23.1 µM | RXF 393 27.7 µM | SF-268 > 100 µM | SK-OV-3 55.3 µM | SN12C 61.2 µM | SW-620 47.4 µM | T47D 64 µM | U-251 40.3 µM | UO-31 52.1 µM

Brc1ccc2[nH]cc(-c3csc(-c4c[nH]c5ccccc45)n3)c2c1
inactive: 786-0 2.37 µM | BT-549 5.7 µM | CAKI-1 2.9 µM | DU-145 3.52 µM | HL-60 5.64 µM | HT-29 1.8 µM | KM12 2.3 µM | MCF7 2.13 µM | MDA-MB-435 3.84 µM | NCI/ADR-RES 2.75 µM | OVCAR-4 5.42 µM | RPMI-8226 3.08 µM | RXF 393 3.61 µM | SF-268 2.66 µM | SK-OV-3 7.52 µM | SN12C 3.66 µM | SW-620 2.75 µM | T47D 4.24 µM | U-251 2.98 µM | UO-31 2.93 µM

COc1ccccc1/C=C1\CCC(CN2CCOCC2)C1=O (stereo not given)
inactive: 786-0 3.02 µM | BT-549 12.6 µM | CAKI-1 17.3 µM | DU-145 17.3 µM | HL-60 2.12 µM | HT-29 11 µM | KM12 3.71 µM | MCF7 5.14 µM | MDA-MB-435 7.13 µM | NCI/ADR-RES 8.95 µM | OVCAR-4 16.8 µM | RPMI-8226 1.32 µM | RXF 393 16.8 µM | SF-268 16 µM | SK-OV-3 > 43.7 µM | SN12C 7.5 µM | SW-620 4.16 µM | T47D 1.84 µM | U-251 18.7 µM | UO-31 16.6 µM

Cc1ccc(/N=N\c2c(O)ccc3cc(S(=O)(=O)O)ccc23)cc1
inactive: 786-0 > 100 µM | BT-549 > 100 µM | CAKI-1 > 100 µM | DU-145 > 100 µM | HL-60 > 100 µM | HT-29 > 100 µM | KM12 > 100 µM | MCF7 > 100 µM | MDA-MB-435 > 100 µM | NCI/ADR-RES > 100 µM | OVCAR-4 > 100 µM | RPMI-8226 > 100 µM | RXF 393 > 100 µM | SF-268 > 100 µM | SK-OV-3 > 100 µM | SN12C > 100 µM | SW-620 > 100 µM | T47D > 100 µM | U-251 > 100 µM | UO-31 > 100 µM

O=C1NC(c2ccccc2Cl)Nc2ccccc21 (stereo not given)
inactive: 786-0 28.4 µM | BT-549 28.4 µM | CAKI-1 5.71 µM | DU-145 30.8 µM | HL-60 2.91 µM | HT-29 6.67 µM | KM12 3.76 µM | MCF7 > 65.3 µM | MDA-MB-435 1.65 µM | NCI/ADR-RES 5.61 µM | OVCAR-4 27.5 µM | RPMI-8226 7.73 µM | RXF 393 15.3 µM | SF-268 59.7 µM | SK-OV-3 31 µM | SN12C 23.3 µM | SW-620 3.09 µM | T47D 48.5 µM | U-251 10.4 µM | UO-31 30.7 µM

[N-]=[N+]=CC(=O)C1CCN(c2ccccc2)C1=O (stereo not given)
inactive: 786-0 > 10 µM | BT-549 > 10 µM | CAKI-1 > 10 µM | DU-145 > 10 µM | HL-60 > 10 µM | HT-29 > 10 µM | KM12 > 10 µM | MCF7 > 10 µM | MDA-MB-435 > 10 µM | NCI/ADR-RES > 10 µM | OVCAR-4 > 10 µM | RPMI-8226 > 10 µM | RXF 393 > 10 µM | SF-268 > 10 µM | SK-OV-3 > 10 µM | SN12C > 10 µM | SW-620 > 10 µM | T47D > 10 µM | U-251 > 10 µM | UO-31 > 10 µM
